Activity calls are given as the source filed them.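 Rule for the calls: active = IL-1b release lowered by over 30% against vehicle-treated cells of the same ATG16L1 genotype; inactive = the rest.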
System: mouse BMDM IL-1b secretion, LPS+ATP, ELISA
Assay: inhibitors of IL-1b release from macrophages, cell-based, mouse BMDMs, ATG16L1 wt and T300A, LPS+ATP (AID 1963954)
Details: at 40 µM, hits give low values

Structure (SMILES)	normalized IL-1b secretion (unstimulated, ATG16L1 T300A)	normalized IL-1b secretion (unstimulated, ATG16L1 wt)	normalized IL-1b secretion (with LPS + ATP, ATG16L1 T300A)	normalized IL-1b secretion (with LPS + ATP, ATG16L1 wt)
CS(C)=O	0.05 (inactive)	0 (inactive)	1.39 (inactive)	1 (inactive)
CCC(C)(C)C(=O)C(=O)N1CCCC[C@H]1C(=O)N[C@H](CCc1ccc(OC)cc1)C(=O)N1[C@@H]2CC[C@H]1CC(Nc1nc(NCCc3sc(N)nc3C)nc(N3CCn4ncnc4C3)n1)C2 (stereo partly specified)			0.39	0.37

— PubChem BioAssay AID1963954
